Source: EP0043274A2, “Antithrombotic treatment” (priority 1980, dated 1982)
Where “and” joins values, the source holds several entries; their conditions need not be identical. Equal values may be shown once.

Tests used:
[1] = tested on: platelet thrombus formation on damaged aortic wall; test: Indium 111 platelet labeling technique in rabbits (platelet accumulation at vessel wall); type: in vivo
Procedure: In medicine, for example, arterial thrombosis is diagnosable by clinical manifestations, by arteriography, and recently, by an Indium 111 platelet labeling technique (see, for example, the article entitled "Differential , Effects of Two Doses of Aspirin on Platelet-Vessel Wall Interaction In Vivo" by K.K. Wu et al being published in the Journal of Clinical Investigtion, August, 1981).
Sodium bisulfite is evaluated under in vivo conditions as an antithrombotic agent using the anti-indium 111 platelet labeling technique in rabbits (see the Wu et al article above cited). The material was administered by intravenous injection (72.80 milligram per kilogram of animal body weight). […]

FIBRINOGEN [2] = target: T1, FIBRINOGEN (Homo sapiens, UniProt P02671+P02675+P02679); test: Coagulation factor assay (Biggs): fibrinogen; type: biochemical; conditions: for FIBRINOGEN (mg%): U.S.P. grade, control 218
T1 construct: from tissue; host or cells: human plasma
T1 sequence (P02671 20-629 limits assumed): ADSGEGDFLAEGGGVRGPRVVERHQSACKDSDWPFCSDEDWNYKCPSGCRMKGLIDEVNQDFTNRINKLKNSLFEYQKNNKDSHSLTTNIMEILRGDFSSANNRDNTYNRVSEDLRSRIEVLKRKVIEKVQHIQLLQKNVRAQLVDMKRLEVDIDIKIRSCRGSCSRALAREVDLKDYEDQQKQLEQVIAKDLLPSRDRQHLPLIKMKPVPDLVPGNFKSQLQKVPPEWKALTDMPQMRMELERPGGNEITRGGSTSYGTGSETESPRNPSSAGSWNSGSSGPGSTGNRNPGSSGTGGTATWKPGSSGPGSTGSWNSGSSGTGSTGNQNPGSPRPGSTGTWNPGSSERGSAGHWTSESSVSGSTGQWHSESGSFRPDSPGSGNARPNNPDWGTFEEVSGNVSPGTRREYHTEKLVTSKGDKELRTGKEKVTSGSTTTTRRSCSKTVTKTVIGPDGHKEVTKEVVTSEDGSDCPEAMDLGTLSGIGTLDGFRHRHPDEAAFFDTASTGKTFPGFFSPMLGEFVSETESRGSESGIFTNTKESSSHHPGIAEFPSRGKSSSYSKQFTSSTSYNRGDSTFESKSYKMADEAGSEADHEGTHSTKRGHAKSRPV
T1 sequence (P02675 31-491): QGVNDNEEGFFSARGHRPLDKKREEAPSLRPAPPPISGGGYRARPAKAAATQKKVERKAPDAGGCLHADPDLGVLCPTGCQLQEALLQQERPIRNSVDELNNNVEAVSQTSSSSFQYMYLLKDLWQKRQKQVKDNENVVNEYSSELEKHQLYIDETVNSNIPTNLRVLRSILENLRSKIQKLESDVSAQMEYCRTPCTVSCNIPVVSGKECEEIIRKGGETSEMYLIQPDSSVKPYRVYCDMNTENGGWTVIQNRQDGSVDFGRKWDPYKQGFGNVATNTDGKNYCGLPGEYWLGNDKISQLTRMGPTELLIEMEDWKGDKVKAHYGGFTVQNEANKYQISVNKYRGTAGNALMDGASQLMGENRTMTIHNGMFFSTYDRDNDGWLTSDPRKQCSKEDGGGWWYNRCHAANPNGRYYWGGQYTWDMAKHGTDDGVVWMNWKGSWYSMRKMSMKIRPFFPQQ
T1 sequence (P02679 27-453): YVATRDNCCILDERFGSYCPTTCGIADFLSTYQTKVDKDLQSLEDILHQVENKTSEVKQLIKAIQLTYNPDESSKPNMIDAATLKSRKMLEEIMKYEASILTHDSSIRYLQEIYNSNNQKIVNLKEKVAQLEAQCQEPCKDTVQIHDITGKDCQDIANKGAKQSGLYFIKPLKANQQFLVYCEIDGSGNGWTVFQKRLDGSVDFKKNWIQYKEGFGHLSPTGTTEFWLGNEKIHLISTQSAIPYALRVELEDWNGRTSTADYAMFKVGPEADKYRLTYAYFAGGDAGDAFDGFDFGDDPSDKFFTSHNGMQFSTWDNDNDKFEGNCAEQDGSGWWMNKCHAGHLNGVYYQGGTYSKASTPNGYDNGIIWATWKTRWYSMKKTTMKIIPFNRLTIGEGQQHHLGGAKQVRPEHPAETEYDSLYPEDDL
Procedure: (§1) The effect of U.S.P. grade sodium bisulfite on blood coagulation factors is evaluated by standard procedures (Biggs) and the results are shown in Table III below.
(§2) References for PT, PTT, and assays of all the coagulation factors can be found in a standard textbook, entitled "Human Blood Coagulation, Haemostasis and Thrombosis", edited by Rosemary Biggs, published by Blackwell Scientific Publications, Oxford, England (2nd edition), pages 670-705, 1976.

FIBRINOGEN [3] = target: T1, FIBRINOGEN; test: Coagulation factor assay (Biggs): fibrinogen; type: biochemical; conditions: mean of 2 experiments; control 205
platelet rich plasma = test: Platelet aggregation in platelet rich plasma, ADP stimulus (Example 25); type: cell-based; conditions: plasma first treated with the compound
From the text: Plasma was centrifuged at 1000 r.p.m. (200 g) to prepare a platelet rich plasma. Using adosine diphosphate (ADP) as a stimulous, rapid aggregation of platelets in the plasma was efected. On the other hand, when such plasma is first treatd with (a) tetramethyl ammonium sulfite, (b) tetramethyl ammonium bisulfite, and then (c) tetrabutyl

[4] = tested on: human platelet rich plasma; test: Platelet aggregation in platelet rich plasma, platelet aggregometer (technique of Born); type: cell-based; conditions: 1 millimole (mM); induced by optimal concentrations of ADP, collogen, epinephrine, and arachidonic acid
From the text: A present preference for purposes of evaluating an - antithrombotic effect is to withdraw samples of blood from a patient undergoing treatment and to measure platelet aggregation. One method is described in the paper by Born in Nature 194, pp. 927-929 (1962), which may be used for this purpose if desired.
That sodium bisulfite is an antiplatelet aggregatory agent is shown by using a platelet aggregometer based on the technique of Born (above cited).
(§3) Platelet rich plasma from rabbit and men was prepared by the centrugation technique referenced in Example 13. Using ADP (adosine diphosphate) as a stimulus rapid aggregation of platelets occurred. […] This procedure is described in the article by Born in Nature, Vol. 194, pgs. 927-929 (1962).
as §3, with “rabbits” for “rabbit”, “diphosphate) arachidonic acid” for “diphosphate)”, “stimulus,” for “stimulus”, “Born,” for “Born in”

PROTHROMBIN = target: T2, PROTHROMBIN (Homo sapiens, UniProt P00734); test: Coagulation factor assay (Biggs): prothrombin (Factor II); type: biochemical; conditions: for PROTHROMBIN (%): U.S.P. grade, control 87
T2 construct: from tissue; host or cells: human plasma
Procedure: as §1, §2

`CCN(CC)CC.O=S(O)O` [TRIETHYL AMINE BISULFITE, triethyl amine bisulfite] was tested, and the “mortality of another rabbit so tested” value ([1]; intervenous injection 127.39 mg/kg) was “died”, the “reduction in accumulation of platelet thrombus” value ([1]; intervenous injection 127.39 mg/kg, equivalent to 0.01 molar concentrations in blood) was “about 30%” and the “Fibrinogen (%)” value (FIBRINOGEN [2]; mean of two experiments, control 205) was 125%.

For `C[N+](C)(C)C` [Tetramethyl-ammonium bisulfite], the “Fibrinogen (%)” value (FIBRINOGEN [3]) was 170% and the “platelet aggregation, adosine diphosphate (ADP) as a stimulous” value (platelet rich plasma) was “inhibited”.

With Sodium bisulfite the “reduces accumulation of platelet thrombus at the damaged vessel wall” value ([1]; intravenous injection 72.80 milligram per kilogram) was “The findings indicate that the active agent reduces accumulation of platelet thrombus at the damaged vessel wall by 70%”, the “Platelet Accumulation II. at normal vessel wall %” value ([1]; intravenous injection 72.80 milligram per kilogram, rabbits A and B, control 0.03± 0.02) was 0.08% and the “Platelet Accumulation II. at normal vessel wall cpm/gm” value ([1]; intravenous injection 72.80 milligram per kilogram, rabbits A and B, control 72,140± 39,040) was 98,611 cpm/gm and 83,066 cpm/gm. For the same compound, the “Platelet Accumulation I. at damaged vessel wall cpm/gm” value ([1]; intravenous injection 72.80 milligram per kilogram, rabbits A and B, count per minute per gram dry weight of tissue, control 1,167,820± 21,310) was 133,986 cpm/gm and 146,630 cpm/gm, the “Platelet Accumulation I. at damaged vessel wall %” value ([1]; intravenous injection 72.80 milligram per kilogram, rabbits A and B, percentage of injected radioactivity per gram dry weight of tissue, control 0.44± 0.08) was 0.11% and 0.15% and the platelet aggregation [4] was “abolishes platelet aggregation”. The “effect on Factor II” value (PROTHROMBIN) was “mildly affected”, the “PROTHROMBIN (%)” value (PROTHROMBIN; 0.01 mg/ml) was 79% and the “PROTHROMBIN (%)” value (PROTHROMBIN; 0.05 mg/ml) was 80%. For the same compound, the “PROTHROMBIN (%)” value (PROTHROMBIN; 0.1 mg/ml) was 72%, the “PROTHROMBIN (%)” value (PROTHROMBIN; 0.5 mg/ml) was 40% and the “PROTHROMBIN (%)” value (PROTHROMBIN; 1.0 mg/ml) was 26%. The “PROTHROMBIN (%)” value (PROTHROMBIN; 5.0 mg/ml) was 5%, the “FIBRINOGEN (mg%)” value (FIBRINOGEN [2]; 0.01 mg/ml) was 222 mg% and the “FIBRINOGEN (mg%)” value (FIBRINOGEN [2]; 0.05 mg/ml) was 228 mg%. For the same compound, the “FIBRINOGEN (mg%)” value (FIBRINOGEN [2]; 0.1 mg/ml) was 217 mg%, the “FIBRINOGEN (mg%)” value (FIBRINOGEN [2]; 0.5 mg/ml) was 190 mg% and the “FIBRINOGEN (mg%)” value (FIBRINOGEN [2]; 1.0 mg/ml) was 185 mg%. For the same compound, the “FIBRINOGEN (mg%)” value (FIBRINOGEN [2]; 5.0 mg/ml) was 130 mg%.
